# Assay results published in US8697641B2, “4-amino-4-oxobutanoyl peptide cyclic analogues, inhibitors of viral replication” (Achillion Pharmaceuticals, Inc., priority 2008, dated 2014).
# Test system: Hepatitis C replicon
# Test: HCV replicon assay (NPT ELISA readout) in Huh-7 replicon-containing cells
# Assay type: cell-based, Hepatitis C virus
# Conditions: HCV replicon in Huh-7 cells, three days incubation
# In short: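 Replication is measured as neomycin phosphotransferase level by captured ELISA after three days of compound exposure (typically 10 to 0.03 μM, 6 concentrations) at 37 °C. Cells are Huh-7 harbouring an HCV replicon with neo gene and NS3-NS5B; interferon alpha is the positive control.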
row,SMILES,EC50
1,"COc1ccc2c(O[C@@H]3C[C@H]4C(=O)N[C@]5(C(=O)NS(=O)(=O)C6CC6)C[C@H]5CCCCCCC[C@H](CC(=O)N5CCCCC5)C(=O)N4C3)cc(-c3ccccc3)nc2c1 [Compound 51, (2R,6R,13aR, 14aR,16aS)-N-(cyclopropylsulfonyl)-2-(7-methoxy-2-phenylquinolin-4-yloxy)-5,16-dioxo-6-(2-oxo-2-(piperidin-1-yl)ethyl) octadecahydrocyclopropa [e]pyrrolo[1,2-a][1,4] diazacyclopentadecine-14a-carboxamide]",< 1000 nM

# Same assay, conditions: Hepatitis C virus, 72 h; HCV replicon in Huh-7 cells, three days incubation
row,SMILES,EC50
1,"COc1ccc2c(O[C@@H]3C[C@H]4C(=O)N[C@]5(C(=O)NS(=O)(=O)C6CC6)C[C@H]5/C=C\CCCCC[C@H](CC(=O)N5CC[C@@H](CN)C5)C(=O)N4C3)cc(-c3ccccc3)nc2c1 [Compound 105, (2R,6R,14aR,16aS, Z)-6-(2-((S)-3-(aminomethyl)pyrrolidin-1-yl)-2-oxoethyl)-N-(cyclopropylsulfonyl)-2-(7-methoxy-2-phenylquinolin-4-yloxy)-5,16-dioxo-1,2,3,5,6,7,8,9,10,11, 13a,14,14a,15,16,16a-hexadecahydrocyclopropa [e]pyrrolo[1,2-a][1,4] diazacyclopentadecine-14a-carboxamide]",< 1000 nM
2,"COc1ccc2c(O[C@@H]3C[C@H]4C(=O)N[C@]5(C(=O)NS(=O)(=O)C6CC6)C[C@H]5/C=C\CCCCC[C@H](CC(=O)N5CCCC5)C(=O)N4C3)cc(-c3ccccc3)nc2c1 [Compound 55, (2R,6R,13aS, 14aR,16aS,Z)-N-(cyclopropylsulfonyl)-2-(7-methoxy-2-phenylquinolin-4-yloxy)-5,16-dioxo-6-(2-oxo-2-(pyrrolidin-1-yl)ethyl)-1,2,3,5,6,7,8,9,10,11, 13a,14,14a,15,16,16a-hexadecahydrocyclopropa [e]pyrrolo[1,2-a][1,4] diazacyclopentadecine-14a-carboxamide]",< 1000 nM
3,"COc1ccc2c(O[C@@H]3C[C@H]4C(=O)N[C@@]5(C(=O)NS(=O)(=O)C6CC6)C[C@@H]5/C=C\CCCCC[C@H](CC(=O)N5CCCCC5)C(=O)N4C3)cc(-c3ccccc3)nc2c1 [Compound 49, (2R,6R,13aR, 14aS,16aS,Z)-N-(cyclopropylsulfonyl)-2-(7-methoxy-2-phenylquinolin-4-yloxy)-5,16-dioxo-6-(2-oxo-2-(piperidin-1-yl)ethyl)-1,2,3,5,6,7,8,9,10,11, 13a,14,14a,15,16,16a-hexadecahydrocyclopropa [e]pyrrolo[1,2-a][1,4] diazacyclopentadecine-14a-carboxamide]",1000 to 10000 nM
4,"COc1ccc2c(O[C@@H]3C[C@H]4C(=O)N[C@]5(C(=O)NS(=O)(=O)C6CC6)CC5/C=C\CCCCC[C@H](CC(=O)N5CC[C@@H](CNC(=O)OC(C)(C)C)C5)C(=O)N4C3)cc(-c3ccccc3)nc2c1 (stereo partly drawn) [Compound 103, tert-butyl ((3S)-1-(2-((2R,6R,14aR,16aS,Z)-14a-(cyclopropylsulfonyl-carbamoyl)-2-(7-methoxy-2-phenylquinolin-4-yloxy)-5,16-dioxo-1,2,3,5,6,7,8,9,10,11, 13a,14,14a,15,16,16a-hexadecahydrocyclopropa [e]pyrrolo[1,2-a][1,4]diazacyclopentadecin-6-yl)acetyl)pyrrolidin-3-yl)methylcarbamate]",< 1000 nM
5,"COc1ccc2nc(-c3ccccn3)cc(C(=O)N[C@@H]3C[C@H]4C(=O)N[C@]5(C(=O)NS(=O)(=O)C6CC6)C[C@H]5/C=C\CCCCC[C@H](CC(=O)N5CCC(F)(F)C5)C(=O)N4C3)c2c1 [Compound 98, (2R,6R,14aR,16aS,Z)-N-(cyclopropylsulfonyl)-6-(2-(3,3-difluoropyrrolidin-1-yl)-2-oxoethyl)-2-(6-methoxy-2-(pyridin-2-yl)quinoline-4-carboxamido)-5,16-dioxo-1,2,3,5,6,7,8,9,10,11, 13a,14,14a,15,16,16a-hexadecahydrocyclopropa [e]pyrrolo[1,2-a][1,4] diazacyclopentadecine-14a-carboxamide]",< 1000 nM
6,"COc1ccc2c(O[C@@H]3C[C@H]4C(=O)N[C@]5(C(=O)NS(=O)(=O)C6CC6)C[C@H]5/C=C\CCCCC[C@H](CC(=O)N5CCCC(F)(F)C5)C(=O)N4C3)cc(-c3cccnc3)nc2c1C [Compound 129, (2R,6R,14aR,16aS,Z)-N-(cyclopropylsulfonyl)-6-(2-(3,3-difluoropiperidin-1-yl)-2-oxoethyl)-2-(7-methoxy-8-methyl-2-(pyridin-3-yl)quinolin-4-yloxy)-5,16-dioxo-1,2,3,5,6,7,8,9,10,11, 13a,14,14a,15,16,16a-hexadecahydrocyclopropa [e]pyrrolo[1,2-a][1,4] diazacyclopentadecine-14a-carboxamide]",> 10000 nM
7,"COc1ccc2c(O[C@@H]3C[C@H]4C(=O)N[C@]5(C(=O)NS(=O)(=O)C6CC6)C[C@H]5/C=C\CCCCC[C@H](CC(=O)N5CCC(C(F)(F)F)CC5)C(=O)N4C3)nc(-c3ccccn3)cc2c1Cl [Compound 132, (2R,6R,14aR,16aS,Z)-2-(5-chloro-6-methoxy-3-(pyridin-2-yl)isoquinolin-1-yloxy)-N-(cyclopropylsulfonyl)-5,16-dioxo-6-(2-oxo-2-(4-(trifluoromethyl)piperidin-1-yl)ethyl)-1,2,3,5,6,7,8,9,10,11, 13a,14,14a,15,16,16a-hexadecahydrocyclopropa [e]pyrrolo[1,2-a][1,4] diazacyclopentadecine-14a-carboxamide]",< 1000 nM
8,"COc1ccc2c(O[C@@H]3C[C@H]4C(=O)N[C@]5(C(=O)NS(=O)(=O)C6CC6)C[C@H]5/C=C\CCCCC[C@H](CC(=O)N5CCC(C(F)(F)F)CC5)C(=O)N4C3)cc(-c3csc(NC(C)C)n3)nc2c1C [Compound 121, (2R,6R,13aS,16aS,Z)-N-(cyclopropylsulfonyl)-2-(2-(2-(isopropylamino)thiazol-4-yl)-7-methoxy-8-methylquinolin-4-yloxy)-5,16-dioxo-6-(2-oxo-2-(4-(trifluoromethyl)piperidin-1-yl)ethyl)-1,2,3,5,6,7,8,9,10,11, 13a,14,14a,15,16,16a-hexadecahydrocyclopropa [e]pyrrolo[1,2-a][1,4] diazacyclopentadecine-14a-carboxamide]",< 1000 nM
9,"COc1ccc2c(O[C@@H]3C[C@H]4C(=O)NC(C)(C(=O)O)C/C=C\CCCCC[C@H](CC(=O)N5CCCCC5)C(=O)N4C3)cc(-c3ccccc3)nc2c1 (stereo partly drawn) [Compound 64, (12R,16R,17aS,Z)-16-(7-methoxy-2-phenylquinolin-4-yloxy)-3-methyl-1,13-dioxo-12-(2-oxo-2-(piperidin-1-yl)ethyl)-2,3,4,7,8,9,10,11, 12,13,15,16,17,17a-tetradecahydro-1H-pyrrolo[1,2-a][1,4] diazacyclopentadecine-3-carboxylic acid]",1000 to 10000 nM
10,"COc1ccc2c(O[C@@H]3C[C@H]4C(=O)N[C@]5(C(=O)NS(=O)(=O)C6CC6)C[C@H]5/C=C\CCCCC[C@H](CC(=O)N5CCCCC5)C(=O)N4C3)cc(-c3ccccn3)nc2c1 [Compound 74, (2R,6R,13aS, 14aR,16aS,Z)-N-(cyclopropylsulfonyl)-2-(7-methoxy-2-(pyridin-2-yl)quinolin-4-yloxy)-5,16-dioxo-6-(2-oxo-2-(piperidin-1-yl)ethyl)-1,2,3,5,6,7,8,9,10,11, 13a,14,14a,15,16,16a-hexadecahydrocyclopropa [e]pyrrolo[1,2-a][1,4] diazacyclopentadecine-14a-carboxamide]",< 1000 nM
11,"COc1ccc2c(O[C@@H]3C[C@H]4C(=O)N[C@]5(C(=O)NS(=O)(=O)C6CC6)C[C@H]5/C=C\CCCCC[C@H](CC(=O)N5CCC(F)(F)CC5)C(=O)N4C3)cc(-c3ccccc3)nc2c1 [Compound 61, (2R,6R,13aS, 14aR,16aS,Z)-N-(cyclopropylsulfonyl)-6-(2-(4,4-difluoropiperidin-1-yl)-2-oxoethyl)-2-(7-methoxy-2-phenylquinolin-4-yloxy)-5,16-dioxo-1,2,3,5,6,7,8,9,10,11, 13a,14,14a,15,16,16a-hexadecahydrocyclopropa [e]pyrrolo[1,2-a][1,4] diazacyclopentadecine-14a-carboxamide]",< 1000 nM
